Experimental data published in patent publication US20240229055A9, “MOGROSIDE COMPOSITIONS AND METHODS OF PRODUCING SAME” (Elo Life Systems, priority 2022, published 2024).

Legend:
[1] = tested on: sensory panel of trained judges; test: Concentration response curve: sweetness intensity scored against sucrose reference standards, Beidler equation fit; format: in vivo, human; conditions: for Potency at 5 SEV: room temperature, P=SEV*10,000/C; for Beidler equation SEV=a*C/(b+C): constant b (concentration) / Beidler equation SEV=a*C/(b+C): constant a (maximum SEV): best fitting Beidler equation; for Beidler equation SEV=a*C/(b+C): constant b (concentration): C in ppm or mg/L; for Beidler equation SEV=a*C/(b+C): constant a (maximum SEV): SEV = % sucrose equivalent sweetness
Protocol: A blend composed of 80% purified mogroside-V (Chem Faces, CFS202202), 15% 11-oxo-mogroside-V (Chem Faces, CFS202201), and 5% mogroside IIIA-1 (Chem Faces, CFS202201) was diluted to six different concentrations (from 100 ppm to 650 ppm) in spring water (Ice Mountain, retail). For each solution, a set of five reference standards of sucrose dissolved in water in 0.5% (w/w) concentration increments was also prepared. Each concentration of the mogroside blend was evaluated by 6-8 trained judges. Samples were presented in 4-oz soufflé cups at room temperature, and the test sample was labeled with a random 3-digit code. Panelists tasted the blind-coded sample compared to the set of reference samples to determine the sweetness intensity score to the nearest 0.1 unit. Each concentration was evaluated in duplicate. The sweetness intensity scores were then plotted against the mogroside blend concentration to make a concentration response curve, and the best fitting Beidler equation was generated. […] is a 90% pure mogroside V containing about 6% 11-oxo mogroside-V. Five different concentrations of V90 (Huacheng Bio, LHGE-230401), ranging from 100 ppm to 500 ppm, were diluted in spring water (Ice Mountain, retail). Each dilution was presented to a panel of 7-8 judges experienced in evaluating sweeteners and was accompanied by a range of five sucrose solution reference standards bracketing the sweetness intensity of the test sample in 0.5% (w/w) increments. Panelists assigned a sweetness intensity score to each test sample, including blind duplicates, to the nearest 0.1 unit. All samples were served at room temperature in 4-oz soufflé cups with the test samples labeled with random 3-digit codes. Water and […] crackers were provided for rinsing between samples. Both individual mogrosides were also evaluated at five different concentrations in spring water (Ice Mountain, retail) for sweetness intensity. 11-oxo-mogroside was diluted to concentrations ranging from 200 ppm to 600 ppm and mogroside IIIA-1 was diluted to concentrations from 100 to 500 ppm. For each concentration, a set of five sucrose solution reference standards were prepared in 0.5% (w/w) increments to approximately bracket the sweetness intensity of the test sample. A panel of 6-8 trained judges evaluated each test sample in duplicate, accompanied by the corresponding reference standards, and assigned a sweetness intensity score to the sample to the nearest 0.1 unit. Samples were presented in 4-oz soufflé cups at room temperature, and the test sample was labeled with a random 3-digit code. The sweetness intensity scores were then plotted as a function of mogroside concentration to make a concentration response curve, and the best fitting Beidler equation was generated. P=SEV*10,000/C • where C is the concentration of the mogroside blend in ppm or mg/L and SEV is the % sucrose equivalent sweetness determined by sensory panel.

[2] = tested on: sensory panel of experienced judges; test: Descriptive analysis of sweetener attributes on a 15-cm line scale, low (0) to high (60); format: in vivo, human; conditions: about 6 SEV solution, 0=low, 60=high
Text: The same samples described above were presented to a panel of 6-9 experienced judges for descriptive analysis. Solutions were blind-coded with random 3-digit codes and served at room temperature for evaluation. Panelists individually scored attributes of each sample, such as sweetness intensity, bitterness, astringency, and the presence of side flavors such as licorice or fruitiness. Scores were based on a 15-cm line scale marked with evenly spaced 5-point increments from low (0) to high (60). Samples were evaluated in duplicate. Water and […] crackers were provided for rinsing between samples. A solution of […] was made at 410 ppm in spring water (Ice Mountain, retail) to be about 6 SEV. A second solution was made at about 6 SEV of purified mogroside-V (Chem Faces, CFS202202) at 325 ppm. A panel of 7-8 trained judges evaluated the temporal properties and taste attributes of each sample, including blind duplicates, in the same manner described previously in the Mogroside Blend 80/15/5 Taste Quality sections. The panel also evaluated the intensity of several sensory attributes such as bitterness, astringency, caramel flavor, and fruitiness. The same 15-cm line scale was used for scoring, labeled from low (0) to high (60) with evenly spaced 5-point increments. The samples were served in 4-oz soufflé cups that were labeled with random 3-digit codes. Samples were evaluated at room temperature and included blind duplicates. Water and […] crackers were provided for rinsing between samples. A 400-ppm solution of V90 (Huacheng Bio, LHGE-230401) was tasted as a reference at the beginning of the descriptive analysis session for calibration verification among panelists.

[3] = tested on: sensory panel of trained judges; conditions: 6 SEV solution of sucrose; cited from earlier work
[4] = tested on: sensory panel of trained judges; test: Temporal properties: onset of sweetness, time to maximum sweetness, decay after expectorating; format: in vivo, human; conditions: 600 ppm, about 6 SEV, in spring water
Protocol: Equi-sweet solutions at about 6 SEV were made in spring water (Ice Mountain, retail) of the following sweeteners: purified mogroside-V (Chem Faces, CFS202202), rebaudioside M (95%, Tate & Lyle, lot #1802-2302-1), rebaudioside A (95%, Tate & Lyle, 210617-01), and monk fruit (50% mogroside V, Tate & Lyle, 45GF220305). Another solution was prepared at about 6 SEV of a blend composed of 80% purified mogroside-V (Chem Faces, CFS202202), 15% 11-oxo-mogroside-V (Chem Faces, CFS202201), and 5% mogroside IIIA-1 (Chem Faces, CFS202201). The concentration of each solution can be found in Table 7.
A set of samples of each solution was evaluated by a panel of 7-9 trained judges. Panelists measured the time to onset of sweetness and time to reach maximum sweetness using a timer. Sweetness decay after expectorating was measured by rating sweetness intensity every 5 seconds on a 15-cm line scale graduated in evenly spaced 5-point increments and labeled low (0) to high (60). […] Blind duplicates were evaluated in a second panel under the same conditions.
A solution of V90 was made at 410 ppm in spring water (Ice Mountain, retail) to be about 6 SEV. […] A panel of 7-8 trained judges evaluated the temporal properties and taste attributes of each sample, including blind duplicates, in the same manner described previously in the Mogroside Blend 80/15/5 Taste Quality sections. […]

[5] = in spring water, from Beidler curve

SMILES: C[C@H](CC[C@@H](O[C@@H]1O[C@H](CO[C@@H]2O[C@H](CO)[C@@H](O)[C@H](O)[C@H]2O)[C@@H](O)[C@H](O)[C@H]1O[C@@H]1O[C@H](CO)[C@@H](O)[C@H](O)[C@H]1O)C(C)(C)O)[C@H]1CC[C@@]2(C)[C@@H]3CC=C4[C@@H](CC[C@H](O[C@@H]5O[C@H](CO[C@@H]6O[C@H](CO)[C@@H](O)[C@H](O)[C@H]6O)[C@@H](O)[C@H](O)[C@H]5O)C4(C)C)[C@]3(C)[C@H](O)C[C@]12C [Mogroside V, mogroside V]
- Potency at 5 SEV [1, 5]: 185x
- times as sweet as sucrose at 5 SEV ([1]; in spring water, listed as purified Mog-V): ~200 times as sweet as sucrose
- times as sweet as sucrose at 5 SEV ([1]; in spring water, running text, listed as mogroside V): 185 times as sweet as sucrose
- times as sweet as sucrose at 5 SEV ([1]; in spring water, running text, listed as mogroside-V): about 185 times as sweet as sucrose
- Potency at 10 SEV ([1]; 10 SEV, in spring water, from Beidler curve, beyond tested concentrations): 131x
- Beidler equation SEV=a*C/(b+C): constant b (concentration) [1]: 920.8 ppm
- Beidler equation SEV=a*C/(b+C): constant a (maximum SEV) [1]: 22.03 SEV
- Astringent, average intensity score ([2]; listed as Mog·V): 2.5¤
- Bitterness, average intensity score ([2]; listed as Mog·V): 1.4¤
- Body, average intensity score ([2]; listed as Mog·V): 12.1¤
- Caramel, average intensity score ([2]; listed as Mog·V): 4.5¤
- Fruity, average intensity score ([2]; listed as Mog·V): 3.0¤
- Licorice, average intensity score ([2]; listed as Mog·V): 0.7¤
- Sweet Linger, average intensity score ([2]; listed as Mog·V): 14.3¤
- Sweetness, average intensity score ([2]; listed as Mog·V): 36.3¤

SMILES: C=C1C[C@@]23CC[C@H]4[C@@](C)(CCC[C@@]4(C)C(=O)O[C@@H]4O[C@H](CO)[C@@H](O)[C@H](O)[C@H]4O)[C@@H]2CC[C@]1(O[C@@H]1O[C@H](CO)[C@@H](O)[C@H](O[C@@H]2O[C@H](CO)[C@@H](O)[C@H](O)[C@H]2O)[C@H]1O[C@@H]1O[C@H](CO)[C@@H](O)[C@H](O)[C@H]1O)C3 [Rebaudioside A, rebaudioside A]
- Astringent, average intensity score [2]: 3.7¤
- Bitterness, average intensity score [2]: 11.2¤
- Body, average intensity score [2]: 9.1¤
- Caramel, average intensity score [2]: 1.9¤
- Fruity, average intensity score [2]: 1.3¤
- Licorice, average intensity score [2]: 2.7¤
- Sweet Linger, average intensity score [2]: 9.6¤
- Sweetness, average intensity score [2]: 35.1¤

SMILES: OC[C@H]1O[C@@](CO)(O[C@H]2O[C@H](CO)[C@@H](O)[C@H](O)[C@H]2O)[C@@H](O)[C@@H]1O [sucrose]
- sweet linger decay time (typical value) [3]: 20 to 25 s

SMILES: C[C@H](CC[C@@H](O[C@@H]1O[C@H](CO[C@@H]2O[C@H](CO)[C@@H](O)[C@H](O)[C@H]2O)[C@@H](O)[C@H](O)[C@H]1O[C@@H]1O[C@H](CO)[C@@H](O)[C@H](O)[C@H]1O)C(C)(C)O)[C@H]1CC[C@@]2(C)[C@@H]3CC=C4[C@@H](CC[C@H](O)C4(C)C)[C@]3(C)[C@H](O)C[C@]12C [Mogroside IIIA-1, mogroside III-A1]
- Potency at 5 SEV [1, 5]: 71x
- Beidler equation SEV=a*C/(b+C): constant b (concentration) [1]: 139.9 ppm
- Beidler equation SEV=a*C/(b+C): constant a (maximum SEV) [1]: 6.00 SEV
- bitter taste still present after expectorating [4]: more than 60 seconds

SMILES: C=C1C[C@@]23CC[C@H]4[C@@](C)(CCC[C@@]4(C)C(=O)O[C@@H]4O[C@H](CO)[C@@H](O)[C@H](O[C@@H]5O[C@H](CO)[C@@H](O)[C@H](O)[C@H]5O)[C@H]4O[C@@H]4O[C@H](CO)[C@@H](O)[C@H](O)[C@H]4O)[C@@H]2CC[C@]1(O[C@@H]1O[C@H](CO)[C@@H](O)[C@H](O[C@@H]2O[C@H](CO)[C@@H](O)[C@H](O)[C@H]2O)[C@H]1O[C@@H]1O[C@H](CO)[C@@H](O)[C@H](O)[C@H]1O)C3 [Rebaudioside M, rebaudioside M]
- Astringent, average intensity score [2]: 2.0¤
- Bitterness, average intensity score [2]: 1.7¤
- Body, average intensity score [2]: 11.2¤
- Caramel, average intensity score [2]: 3.5¤
- Fruity, average intensity score [2]: 1.6¤
- Licorice, average intensity score [2]: 1.0¤
- Sweet Linger, average intensity score [2]: 17.3¤
- Sweetness, average intensity score [2]: 36.4¤

SMILES: C[C@H](CC[C@@H](O[C@@H]1O[C@H](CO[C@@H]2O[C@H](CO)[C@@H](O)[C@H](O)[C@H]2O)[C@@H](O)[C@H](O)[C@H]1O[C@@H]1O[C@H](CO)[C@@H](O)[C@H](O)[C@H]1O)C(C)(C)O)[C@H]1CC[C@@]2(C)[C@@H]3CC=C4[C@@H](CC[C@H](O[C@@H]5O[C@H](CO[C@@H]6O[C@H](CO)[C@@H](O)[C@H](O)[C@H]6O)[C@@H](O)[C@H](O)[C@H]5O)C4(C)C)[C@]3(C)C(=O)C[C@]12C [11-oxo-mogroside V]
- Potency at 5 SEV [1, 5]: 28x
- times as sweet as sucrose at 5 SEV ([1]; in spring water, running text, listed as 11-oxo mogroside-V): approximately 28 times as sweet as sucrose
- times as sweet as sucrose at 5 SEV ([1]; in spring water, running text, listed as 11-oxo-mogroside-V): 28 times as sweet as sucrose
- Beidler equation SEV=a*C/(b+C): constant b (concentration) [1]: 546.3 ppm
- Beidler equation SEV=a*C/(b+C): constant a (maximum SEV) [1]: 6.56 SEV
